Reference: patent US20040049075A1, “Process for the production of calcium pantothenate” (priority 2000, published 2004)

Assay: Moisture absorption test
Assay type: physicochemical
Conditions: 40° C. and 75% RH; nonhygroscopic defined in b24 as moisture absorption 2% or less after 24 hours
Excerpt: The term “crystalline” used in the specification encompasses a substance containing a small amount of an amorphous part, as well as a substance substantially consisting completely of crystals. However, calcium pantothenate in a completely amorphous state (the state which gives substantially no detectable peak by the powder X-ray diffraction analysis) is excluded. The term “crystalline” should not be interpreted to exclude a substance containing a small amount of an amorphous part. Further, the term “amorphous” means a state in which no peak is substantially detectable by powder X-ray diffraction analysis. The term “nonhygroscopic” used in the specification means that a moisture absorption amount is 2% or less, preferably 1% or less, after 24 hours at 40° C. under a relative humidity of 75%. A moisture absorption test was performed under conditions of 40° C. and 75% RH for the PC consisting of α-form crystals obtained in Example 1 and the PC consisting of β-form crystals obtained in Example 7. A similar test was performed for the amorphous PC used in Example 1 as a control.

hygroscopicity (verdict of moisture absorption test): nonhygroscopic
Substance: monocalcium bis[(R)-N-(2,4-dihydroxy-3,3-dimethylbutyryl)-β-alaninate]
